Key:
Experiment in all cases: In vitro antifungal activity, microbroth dilution MIC
Type in all cases: cell-based
Conditions in all cases: RPMI-1640, 35° C., 4 to 48 hours, no growth observed
[1] = tested on: Candida tropicalis A. 13803
How it was run: (§1)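 Broth microdilution adapted from NCCLS M27, in RPMI-1640 with 0.165 M MOPS, pH 7.0. Yeast or mould inoculum at 2×10^3 CFU/ml was mixed 1:1 with DMSO-derived compound solutions (200 to 0.10 μg/ml before mixing) and incubated at 35 °C for 4 to 48 h. MIC was the concentration showing no growth.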

[2] = tested on: Trichophyton mentagrophytes A. 9129
How it was run: as §1

[3] = tested on: Candida albicans A. 10231
How it was run: as §1

[4] = tested on: Trichophyton mentagrophytes B. 32663
How it was run: as §1

[5] = tested on: Candida parapsitosis A. 7330
How it was run: as §1

[6] = tested on: Cryptococcus neoformans IFM. 40092
How it was run: as §1

[7] = tested on: Torulopsis glabrata B. 16205
How it was run: as §1

[8] = tested on: Aspergillus furnigatus B. 19119
How it was run: as §1

[9] = tested on: Aspergillus niger A. 16404
How it was run: as §1

[10] = tested on: Candida albicans IFO. 1385
How it was run: as §1

Candida albicans C1-2 = tested on: Candida albicans C1-2
How it was run: as §1

[11] = tested on: Candida pseudotropicalis K. 11658
How it was run: as §1

[12] = tested on: Cryptococcus neoformans A. 34144
How it was run: as §1

Candida krusei K. 11655 = tested on: Candida krusei K. 11655
How it was run: as §1

[13] = tested on: Cryptococcus neoformans B. 42419
How it was run: as §1

Structure (SMILES) | Minimal inhibitory concentration(MIC), C. tropicalis A. 13803 [1] | Minimal inhibitory concentration(MIC), T. mentagrophytes A. 9129 [2] | Minimal inhibitory concentration(MIC), C. albicans A. 10231 [3] | Minimal inhibitory concentration(MIC), T. mentagrophytes B. 32663 [4] | Minimal inhibitory concentration(MIC), C. parapsitosis A. 7330 [5] | Minimal inhibitory concentration(MIC), Cry. neoformans IFM. 40092 [6] | Minimal inhibitory concentration(MIC), T. glabrata B. 16205 [7] | Minimal inhibitory concentration(MIC), A furnigatus B. 19119 [8] | Minimal inhibitory concentration(MIC), A. niger A. 16404 [9] | Minimal inhibitory concentration(MIC), C. albicans IFO. 1385 [10] | Minimal inhibitory concentration(MIC), C. albicans C1-2 (Candida albicans C1-2) | Minimal inhibitory concentration(MIC), C. pseudotropicalis K. 11658 [11] | Minimal inhibitory concentration(MIC), Cry. neoformans A. 34144 [12] | Minimal inhibitory concentration(MIC), C. krusei K. 11655 (Candida krusei K. 11655) | Minimal inhibitory concentration(MIC), Cry. neoformans B. 42419 [13]
FC(Oc1ccc(OCC2COC(Cn3ccnc3)(c3ccc(Cl)cc3Cl)O2)cc1)=C(c1ccc(Cl)cc1)C(F)(F)F (mixture of isomers) [Ex. 102] | >100 µg/mL | 25.0 µg/mL | 100 µg/mL | 12.5 µg/mL | >100 µg/mL | 3.13 µg/mL | 100 µg/mL | 100 µg/mL | >100 µg/mL | 6.25 µg/mL | 100 µg/mL | >100 µg/mL | 12.5 µg/mL | >100 µg/mL | >100 µg/mL
FC(Oc1ccc(OCC2COC(Cn3ccnc3)(c3ccc(Cl)cc3Cl)O2)cc1)=C(c1cccc(F)c1)C(F)(F)F (mixture of isomers) [Ex. 103] | >100 µg/mL | 12.5 µg/mL | 50.0 µg/mL | 6.25 µg/mL | >100 µg/mL | 0.78 µg/mL | 50.0 µg/mL | 100 µg/mL | >100 µg/mL | 3.13 µg/mL | 50.0 µg/mL | >100 µg/mL | 3.13 µg/mL | >100 µg/mL | 3.13 µg/mL
FC(Oc1ccc(OCC2COC(Cn3ccnc3)(c3ccc(Cl)cc3Cl)O2)cc1)=C(c1cc(Cl)cc(Cl)c1)C(F)(F)F (mixture of isomers) [Ex. 104] | >100 µg/mL | 50.0 µg/mL | 100 µg/mL | 25.0 µg/mL | >100 µg/mL | 0.78 µg/mL | 100 µg/mL | >100 µg/mL | >100 µg/mL | 3.13 µg/mL | >100 µg/mL | >100 µg/mL | 3.13 µg/mL | >100 µg/mL | 3.13 µg/mL
COc1ccc(C=C(F)Oc2ccc(OCC3COC(Cn4ccnc4)(c4ccc(F)cc4F)O3)cc2)cc1 (mixture of isomers) [Ex. 105] | >100 µg/mL | 100 µg/mL | 50.0 µg/mL | 100 µg/mL | >100 µg/mL | 1.56 µg/mL | >100 µg/mL | >100 µg/mL | >100 µg/mL | 6.25 µg/mL | 100 µg/mL | >100 µg/mL | 6.25 µg/mL | >100 µg/mL | 12.5 µg/mL
FC(Oc1ccc(OCC2COC(Cn3ccnc3)(c3ccc(F)cc3F)O2)cc1)=C(c1ccccc1)C(F)(F)F (mixture of isomers) [Ex. 106] | >100 µg/mL | 3.13 µg/mL | 100 µg/mL | 1.56 µg/mL | 3.13 µg/mL | 0.39 µg/mL | 50.0 µg/mL | >100 µg/mL | >100 µg/mL | 1.56 µg/mL | 50.0 µg/mL | 3.13 µg/mL | 1.56 µg/mL | 3.13 µg/mL | 1.56 µg/mL
Cc1cccc(C(=C(F)Oc2ccc(OCC3COC(Cn4ccnc4)(c4ccc(F)cc4F)O3)cc2)C(F)(F)F)c1 (mixture of isomers) [Ex. 107] | >100 µg/mL | 12.5 µg/mL | 100 µg/mL | 3.13 µg/mL | >100 µg/mL | 0.39 µg/mL | 100 µg/mL | >100 µg/mL | >100 µg/mL | 3.13 µg/mL | 50.0 µg/mL | 100 µg/mL | 1.56 µg/mL | >100 µg/mL | 3.13 µg/mL
CCc1ccc(C(=C(F)Oc2ccc(OCC3COC(Cn4ccnc4)(c4ccc(F)cc4F)O3)cc2)C(F)(F)F)cc1 (mixture of isomers) [Ex. 108] | >100 µg/mL | 50.0 µg/mL | >100 µg/mL | 12.5 µg/mL | >100 µg/mL | 0.78 µg/mL | >100 µg/mL | >100 µg/mL | >100 µg/mL | 6.25 µg/mL | 100 µg/mL | >100 µg/mL | 3.13 µg/mL | >100 µg/mL | 3.13 µg/mL

From patent publication US6376497B1, “Antifungal azole derivatives having a fluorinated vinyl group and process for preparing same” (Korea Research Institute of Chemical Technology, priority 1999, dated 2002)
